Measurements as given in patent publication US8263595B2, “Triazolopyridine compounds and their use as ask inhibitors” (Merck Serono SA, priority 2007, dated 2012).

How the values were obtained:
LPS-induced TNFα release = experiment: Lipopolysaccharide (LPS)-induced TNFα release assay in mice; type: in vivo; details: 30 mg/kg po, female C3H mice, given 15 min prior to LPS 0.3 mg/kg ip, blood sampled 90 min later
Method: The administration of LPS induces the release of TNFα from white blood cells (monocytes, macrophages, Kupffer cells, etc) and endothelial cells into the blood. This is a model for cytokine release that occurs during inflammation. […] ASK1 mediates free radical pathways. Based on this mechanism, the blockade of ASK1 by specific inhibitors should reduce LPS-induced TNFα release in mice.
Female C3H mice (Elevage Janvier) (8 week old), received E. Coli's LPS (O111:B4, Sigma, 0.3 mg/kg, ip) after the administration of the test articles. Ninety min later, the animals were sacrificed and the blood was sampled. Plasma levels of TNFα were determined in serum using an ELISA kit (R&D). LPS was solubilized in sterile saline.
The test articles were suspended in 0.5% CMC/0.25% Tween 20 and administered 15 min prior the challenge of LPS by oral route at the doses of 3 to 30 mg/kg. Control animals received the vehicle. In time course experiments, the test articles were administered 15 min to 4 hrs prior the challenge of LPS. Dexamethasone (0.1 mg/kg, po) was used as reference.
The animals were divided into 5 groups (6 mice each group):
Inhibition of TNFα release was calculated as follows: % inhibition=100*([…])) Where TNFα 1=TNFα concentration in group 1 (pg/ml), TNFα X=TNFα concentration in group X (pg/ml).

human recombinant ASK1 = target: T1, human recombinant ASK1 (Homo sapiens, UniProt Q99683); experiment: Enzyme inhibition assay (in vitro ASK1 assay), luciferase-based measurement of remaining ATP; type: biochemical; details: human recombinant ASK1, MBP and ATP as substrates, 180 minutes at 30° C.; triplicates on at least 2 separate occasions
T1 sequence (Q99683 1-1374): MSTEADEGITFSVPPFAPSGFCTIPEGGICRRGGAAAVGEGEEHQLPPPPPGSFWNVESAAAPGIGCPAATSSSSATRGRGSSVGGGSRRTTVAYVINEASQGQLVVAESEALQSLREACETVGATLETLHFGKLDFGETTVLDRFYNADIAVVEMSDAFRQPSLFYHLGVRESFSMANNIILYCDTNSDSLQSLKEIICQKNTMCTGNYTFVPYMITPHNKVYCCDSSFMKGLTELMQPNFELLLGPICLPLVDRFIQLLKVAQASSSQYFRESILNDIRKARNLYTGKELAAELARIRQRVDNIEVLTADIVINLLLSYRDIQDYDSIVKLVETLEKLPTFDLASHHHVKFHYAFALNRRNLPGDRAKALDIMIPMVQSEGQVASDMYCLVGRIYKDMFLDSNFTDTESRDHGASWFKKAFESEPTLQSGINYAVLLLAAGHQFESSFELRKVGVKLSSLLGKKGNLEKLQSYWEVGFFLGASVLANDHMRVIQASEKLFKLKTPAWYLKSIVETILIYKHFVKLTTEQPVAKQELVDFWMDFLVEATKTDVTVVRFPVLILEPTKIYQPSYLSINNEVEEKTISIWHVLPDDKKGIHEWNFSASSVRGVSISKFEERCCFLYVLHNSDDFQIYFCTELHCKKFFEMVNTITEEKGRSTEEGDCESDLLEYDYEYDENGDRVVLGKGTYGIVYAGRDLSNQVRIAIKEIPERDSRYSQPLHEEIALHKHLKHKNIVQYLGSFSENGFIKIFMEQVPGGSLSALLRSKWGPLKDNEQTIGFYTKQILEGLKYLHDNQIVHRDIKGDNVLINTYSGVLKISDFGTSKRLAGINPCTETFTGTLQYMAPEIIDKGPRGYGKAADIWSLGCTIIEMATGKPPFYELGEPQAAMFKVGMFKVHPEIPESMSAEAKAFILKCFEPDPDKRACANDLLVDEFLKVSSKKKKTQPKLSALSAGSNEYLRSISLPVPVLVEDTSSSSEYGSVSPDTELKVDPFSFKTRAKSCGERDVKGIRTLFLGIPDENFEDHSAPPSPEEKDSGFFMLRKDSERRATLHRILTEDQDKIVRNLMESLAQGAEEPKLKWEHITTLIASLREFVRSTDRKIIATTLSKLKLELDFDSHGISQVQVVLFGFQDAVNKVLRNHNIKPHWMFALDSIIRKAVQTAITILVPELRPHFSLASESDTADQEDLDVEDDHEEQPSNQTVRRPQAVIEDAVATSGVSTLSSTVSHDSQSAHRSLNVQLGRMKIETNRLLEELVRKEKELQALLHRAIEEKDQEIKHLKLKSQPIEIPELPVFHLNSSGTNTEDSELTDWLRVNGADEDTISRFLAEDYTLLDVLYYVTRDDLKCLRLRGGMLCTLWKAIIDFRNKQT
Method: Assays were performed in a 384 well plate (Corning, #3654) format, using the human recombinant ASK1 as an enzyme and MBP (myelin basic protein, Upstate/Millipore, #13-104) with ATP as substrates. Assay read out was the measurement of the amount of ATP remaining after stopping the reaction, using a luciferase-based kit from Cambrex.
Compounds to be tested were dissolved in 100% DMSO at a concentration of 10 mM. Subsequent dilutions were performed in 100% DMSO using a Biomek FX Workstation. 5 μL of diluted compound or vehicle (6% DMSO) was distributed to a 384 well plate. 5 μL of substrates (ATP 7.5 μM, MBP 450 ng/μL) diluted in ASK1 buffer (20 mM Tris HCl pH 7.4, 0.001% Brij35, 0.01% BSA, 5 mM MgCl2, 1 mM DL-Dithiothreitol) were added, followed by 5 μL at of human recombinant ASK1 enzyme (22.5 ng/mL) diluted in ASK1 buffer in order to start the reaction. The reaction ran for 180 minutes at 30° C. before the addition of 5 μL of stop solution (Cambrex, #LT23-231). 10 μL of Pklight ATP detection reagent (Cambrex #LT23-233) were added. After 120 min of incubation, luminescence was measured on a Perkin-Elmer Victor 2 spectrofluorimeter. The percentage of inhibition relative to the fluorescence observed in the presence of solvent (1% DMSO) alone was determined. The IC50 values for inhibition were determined in triplicates on at least 2 separate occasions.

IC50 (human recombinant ASK1) [nM]	Compound	% inhibition of LPS-induced TNFα release in mice (LPS-induced TNFα release) [%]
700 ± 200	O=C(Nc1nc2cccc(-c3ccoc3)n2n1)c1cccnc1 [Example 2, N-[5-(3-furyl)[1,2,4]triazolo[1,5-a]pyridin-2-yl]nicotinamide]	49 ± 8
1100 ± 500	O=C(Nc1nc2cccc(NC3CC3)n2n1)c1cccnc1 [Example 30, N-[5-(cyclopropylamino)[1,2,4]triazolo[1,5-a]pyridin-2-yl]nicotinamide]	43 ± 3
531 ± 18	COCCN(C)Cc1ccc(C(=O)Nc2nc3cccc(NC4CCCCC4)n3n2)cc1 [Example 130, N-[5-(cyclohexylamino)[1,2,4]triazolo[1,5-a]pyridin-2-yl]-4-{[(2-methoxyethyl)(methyl)amino]methyl}benzamide]	
91 ± 26	O=C(Nc1nc2cccc(NC3CCCCC3)n2n1)c1ccc(NCCCO)nc1 [Example 132, N-[5-(cyclohexylamino)[1,2,4]triazolo[1,5-a]pyridin-2-yl]-6-[(3-hydroxypropyl)amino]nicotinamide]	
1140	CN(C)Cc1ccc(C(=O)Nc2nc3cc(C(F)(F)F)cc(NC4CC4)n3n2)cc1 [Example 140, N-[5-(cyclopropylamino)-7-(trifluoromethyl)[1,2,4]triazolo[1,5-a]pyridin-2-yl]-4-[(dimethylamino)methyl]benzamide]	
2000	COc1cc(-c2ccc3nc(NC(=O)c4ccc(CN5CCCCC5)cc4)nn3c2)ccc1O [Example 144, N-[6-(4-hydroxy-3-methoxyphenyl)[1,2,4]triazolo[1,5-a]pyridin-2-yl]-4-(piperidin-1-ylmethyl)benzamide]	
138 ± 30	COc1cc(-c2ccc3nc(NC(=O)c4ccc(CN5CCCC5=O)cc4)nn3c2)ccc1O [Example 146, N-[6-(4-hydroxy-3-methoxyphenyl)[1,2,4]triazolo[1,5-a]pyridin-2-yl]-4-[(2-oxopyrrolidin-1-yl)methyl]benzamide]	
5500	COc1cc(-c2ccc3nc(NC(=O)c4ccc(CN(C)C)cc4)nn3c2)ccc1O [Example 147, 4-[(dimethylamino)methyl]-N-[6-(4-hydroxy-3-methoxyphenyl)[1,2,4]triazolo[1,5-a]pyridin-2-yl]benzamide]	
119 ± 29	CCC(C)Nc1cc(Cl)cc2nc(NC(=O)c3ccc(NCCCO)nc3)nn12 (centres unmarked) [Example 169, N-[5-(sec-butylamino)-7-chloro[1,2,4]triazolo[1,5-a]pyridin-2-yl]-6-[(3-hydroxypropyl)amino]nicotinamide]	
